In patent US11780845B2 (Relay Therapeutics, Inc., priority 2019, dated 2023):

Key:
FGFR2 [1] = target: T1, FGFR2 (Homo sapiens (Human), UniProt P21802); assay: FGFR2 Biochemical Caliper Assay
Procedure: Compounds of the present invention were also tested in a FGFR2 Biochemical Caliper Assay. Compounds were prepared in 10 mM DMSO solution and serially diluted into 11 concentrations by 3-fold dilution. […] 5 uL of ATP solution (100 uM) was added to start the reaction and the plate was incubated for 90 minutes, then 70 uL of stopping buffer (0.5M EDTA) was added to terminate the reaction. Each well was analyzed using EZ reader.

SNU16 cells = assay: SNU16 Cancer Cell Line Proliferation Assay; format: cell-based; settings: SNU-16 cells
Procedure: Compounds of the present invention were also tested in a SNU16 Cancer Cell Line Proliferation Assay, Test compounds were prepared in a 10 mM DMSO stock solution. 45 uL of stock solution was transferred to a 384 well plate, and a 3-fold 11-point dolution was performed. SNU16 cells in a 384 well cell culture plate were seeded and incubated at 37 degrees for 24 hours. 40 nL of each concentration of compound was transferred from the compound plate to a corresponding well in the cell culture plate by Echo550 liquid handler. The plates were incubated for 96 hours, then equilibrated to room temperature for 15 minutes. 20 uL of CellTiter Glo reagent is added into each well, then the plate was shaken gently for 30 minutes at room temperature. Chemiluminescence was then read on an EnVision reader.

FGFR2 [2] = target: T1, FGFR2; assay: Biochemical FGFR2 Caliper assay
SNU-16 = assay: Cell SNU-16 assay; format: cell-based; settings: Homo sapiens, SNU-16, SNU-16 cells

T1 sequence (P21802 22-821): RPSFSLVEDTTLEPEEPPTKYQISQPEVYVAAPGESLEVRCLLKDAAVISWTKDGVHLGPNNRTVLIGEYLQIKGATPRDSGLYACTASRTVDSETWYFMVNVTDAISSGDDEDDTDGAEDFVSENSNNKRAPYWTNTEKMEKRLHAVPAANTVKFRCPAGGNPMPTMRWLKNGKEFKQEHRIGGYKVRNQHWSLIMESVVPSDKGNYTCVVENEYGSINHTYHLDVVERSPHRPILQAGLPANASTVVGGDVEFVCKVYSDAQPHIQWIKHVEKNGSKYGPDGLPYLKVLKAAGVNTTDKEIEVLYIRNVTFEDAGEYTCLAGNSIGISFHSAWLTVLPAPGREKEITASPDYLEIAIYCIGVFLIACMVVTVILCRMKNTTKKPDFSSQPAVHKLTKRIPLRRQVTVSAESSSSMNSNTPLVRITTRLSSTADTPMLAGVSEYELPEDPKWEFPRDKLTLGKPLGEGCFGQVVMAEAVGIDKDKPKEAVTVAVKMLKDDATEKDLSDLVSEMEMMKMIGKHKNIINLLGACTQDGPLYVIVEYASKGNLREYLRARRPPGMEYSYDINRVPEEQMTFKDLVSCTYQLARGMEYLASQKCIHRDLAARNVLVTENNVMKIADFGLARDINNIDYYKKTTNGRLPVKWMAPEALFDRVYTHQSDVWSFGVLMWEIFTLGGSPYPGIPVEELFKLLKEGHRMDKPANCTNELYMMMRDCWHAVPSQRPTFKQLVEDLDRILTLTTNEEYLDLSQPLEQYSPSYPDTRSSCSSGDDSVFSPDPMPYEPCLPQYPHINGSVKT

Row | Structure (SMILES) | IC50 (FGFR2 [1]) [µM] | IC50 (SNU16 cells; Homo sapiens) [µM] | IC50 (SNU16 cells) [µM] | IC50 (FGFR2 [2]) [µM] | IC50 (SNU-16) [µM]
1 | C=C(C)C(=O)Nc1ccc(-c2c(C3=CC[C@@H](C(=O)N4CCCC4)CC3)c3c(N)ncnc3n2C)cc1 (single isomer, unassigned) [Example 397] | 1 to 100 | 0.25 to 1 | – | – | –
2 | C=C(C)C(=O)Nc1ccc(-c2c(C3=CC[C@H](C(=O)N4CCCC4)CC3)c3c(N)ncnc3n2C)cc1 (single isomer, unassigned) [Example 398] | < 0.1 | ≤ 0.1 | – | – | –
3 | C=C(C)C(=O)Nc1ccc(-c2c(C3=CC[C@@H](Oc4cccc(C)n4)CC3)c3c(N)ncnc3n2C)cc1 (single isomer, unassigned) [Example 451] | 0.25 to 1 | ≤ 0.1 | – | – | –
4 | C=C(C)C(=O)Nc1ccc(-c2c(C3=CC[C@H](Oc4cccc(C)n4)CC3)c3c(N)ncnc3n2C)cc1 (single isomer, unassigned) [Example 452] | 1 to 100 | 0.25 to 1 | – | – | –
5 | C=C(C)C(=O)Nc1ccc(-c2c(-c3ccc(C(=O)N4CC[C@@H]5C[C@@H]54)cc3)c3c(N)ncnc3n2C)c(F)c1 (single isomer, unassigned) [Example 464] | < 0.1 | ≤ 0.1 | – | – | –
6 | C=C(C)C(=O)Nc1ccc(-c2c(-c3ccc(C(=O)N4CC[C@H]5C[C@H]54)cc3)c3c(N)ncnc3n2C)c(F)c1 (single isomer, unassigned) [Example 466] | < 0.1 | ≤ 0.1 | – | – | –
7 | C=C(C)C(=O)Nc1ccc(-c2c(-c3ccc(Oc4nccc(C)n4)c(F)c3)c3c(N)ncnc3n2[C@H]2CCOC2)cc1 (single isomer, unassigned) [Example 538] | < 0.1 | ≤ 0.1 | – | – | –
8 | C=C(C)C(=O)Nc1ccc(-c2c(-c3ccc(Oc4nccc(C)n4)c(F)c3)c3c(N)ncnc3n2[C@@H]2CCOC2)cc1 (single isomer, unassigned) [Example 539] | < 0.1 | ≤ 0.1 | – | – | –
9 | C=C(C)C(=O)Nc1ccc(-c2c(C3=CC[C@H](Oc4ccn(C)n4)CC3)c3c(N)ncnc3n2C)cc1 (single isomer, unassigned) [Example 550] | 0.1 to 0.25 | ≤ 0.1 | – | – | –
10 | C[C@@H](Cl)C(=O)Nc1ccc(-c2c(-c3ccc(C(=O)N4CCCC4)cc3)c3c(N)ncnc3n2C)cc1 (single isomer, unassigned) [Example 559] | 0.25 to 1 | 0.25 to 1 | – | – | –
11 | C[C@H](Cl)C(=O)Nc1ccc(-c2c(-c3ccc(C(=O)N4CCCC4)cc3)c3c(N)ncnc3n2C)cc1 (single isomer, unassigned) [Example 560] | 0.1 to 0.25 | 0.1 to 0.25 | – | – | –
12 | Cn1c(-c2ccc(NC(=O)C3=CCC3)cc2)c(C2=CC[C@@H](C(=O)N3CCCC3)CC2)c2c(N)ncnc21 (single isomer, unassigned) [Example 565] | < 0.1 | ≤ 0.1 | – | – | –
13 | C=C(C)C(=O)Nc1ccc(-c2c(C3=CC[C@@H](C(=O)N4CCC[C@H]4C#N)CC3)c3c(N)ncnc3n2C)cc1 (single isomer, unassigned) [Example 582] | < 0.1 | ≤ 0.1 | – | – | –
14 | Cn1c(-c2ccc(NC(=O)[C@@H]3CO3)cc2)c(-c2ccc(C(=O)N3CCCC3)cc2)c2c(N)ncnc21 (single isomer, unassigned) [Example 584] | 0.1 to 0.25 | 0.25 to 1 | – | – | –
15 | C=C(C)C(=O)Nc1ccc(-c2c(C3=CC[C@@H](C(=O)N4CC5CC5C4)CC3)c3c(N)ncnc3n2C)cc1 (single isomer, unassigned) [Example 592] | < 0.1 | ≤ 0.1 | – | – | –
16 | C=CC(=O)N1CC[C@@H](c2c(-c3ccc(Oc4ncccn4)cc3)c3c(N)ncnc3n2C)C1 (single isomer, unassigned) [Example 697] | < 0.1 | ≤ 0.1 | – | – | –
17 | C=CC(=O)N1CC[C@H](c2c(-c3ccc(Oc4ncccn4)cc3)c3c(N)ncnc3n2C)C1 (single isomer, unassigned) [Example 698] | 0.25 to 1 | 0.1 to 0.25 | – | – | –
18 | C=CC(=O)N1CC[C@@H](c2c(-c3ccc(Oc4ncccn4)cc3)c3c(N)ncnc3n2CC)C1 (single isomer, unassigned) [Example 708] | < 0.1 | ≤ 0.1 | – | – | –
19 | C=CC(=O)N1CC[C@H](c2c(-c3ccc(Oc4ncccn4)cc3)c3c(N)ncnc3n2CC)C1 (single isomer, unassigned) [Example 710] | 0.25 to 1 | 0.1 to 0.25 | – | – | –
20 | C=CC(=O)N1CC[C@@H](c2c(-c3ccc(Oc4cccc(C)n4)cc3)c3c(N)ncnc3n2C)C1 (single isomer, unassigned) [Example 711] | < 0.1 | ≤ 0.1 | – | – | –
21 | C=CC(=O)N1CC[C@H](c2c(-c3ccc(Oc4cccc(C)n4)cc3)c3c(N)ncnc3n2C)C1 (single isomer, unassigned) [Example 712] | < 0.1 | ≤ 0.1 | – | – | –
22 | C=CC(=O)N1CC[C@@H](c2[nH]c3ncnc(N)c3c2-c2ccc(Oc3cccc(C)n3)cc2)C1 (single isomer, unassigned) [Example 752] | < 0.1 | ≤ 0.1 | – | – | –
23 | C=CC(=O)N1CC[C@H](c2[nH]c3ncnc(N)c3c2-c2ccc(Oc3cccc(C)n3)cc2)C1 (single isomer, unassigned) [Example 754] | 0.25 to 1 | 0.1 to 0.25 | – | – | –
24 | C=CC(=O)Nc1ccc(-c2c(-c3ccc(Oc4cccc(C)n4)c(OC)c3)c3c(N)ncnc3n2C)cc1 [Example 1] | < 0.1 | ≤ 0.1 | – | – | –
25 | C=C(C)C(=O)Nc1ccc(-c2c(-c3ccc(Oc4cccc(C)n4)c(OC)c3)c3c(N)ncnc3n2C)cc1 [Example 4] | < 0.1 | ≤ 0.1 | – | – | –

Row | Structure (SMILES) | IC50 (FGFR2 [1]) [µM] | IC50 (SNU16 cells; Homo sapiens) [µM] | IC50 (SNU16 cells) [µM] | IC50 (FGFR2 [2]) [µM] | IC50 (SNU-16) [µM]
26 | C=CC(=O)Nc1ccc(-c2c(-c3ccc(Oc4ccccn4)c(OC)c3)c3c(N)ncnc3n2C)cc1 [Example 5] | < 0.1 | ≤ 0.1 | – | – | –
27 | C=CC(=O)Nc1ccc(-c2c(-c3ccc(Oc4cccc(C)n4)cc3)c3c(N)ncnc3n2C)cc1F [Example 11] | < 0.1 | ≤ 0.1 | – | – | –
28 | C=CC(=O)Nc1ccc(-c2c(-c3ccc(Oc4cccc(C)n4)cc3)c3c(N)ncnc3n2C)cc1OC [Example 14] | < 0.1 | ≤ 0.1 | – | – | –
29 | C=CC(=O)Nc1ccc(-c2c(-c3ccc(Oc4ncccn4)c(OC)c3)c3c(N)ncnc3n2C)cc1 [Example 15] | < 0.1 | ≤ 0.1 | – | – | –
30 | CC#CC(=O)Nc1ccc(-c2c(-c3ccc(Oc4cccc(C)n4)c(OC)c3)c3c(N)ncnc3n2C)cc1 [Example 18] | – | ≤ 0.1 | – | – | –
31 | C/C=C/C(=O)Nc1ccc(-c2c(-c3ccc(Oc4cccc(C)n4)c(OC)c3)c3c(N)ncnc3n2C)cc1 [Example 31] | < 0.1 | ≤ 0.1 | – | – | –
32 | C=CC(=O)Nc1ccc(-c2c(-c3ccc(Oc4ncc(C)cn4)c(OC)c3)c3c(N)ncnc3n2C)cc1 [Example 32] | < 0.1 | ≤ 0.1 | – | – | –
33 | C=CC(=O)Nc1ccc(-c2c(-c3ccc(Oc4cccc(Cl)n4)c(OC)c3)c3c(N)ncnc3n2C)cc1 [Example 35] | < 0.1 | ≤ 0.1 | – | – | –
34 | C=C(C)C(=O)Nc1ccc(-c2c(-c3ccc(Oc4ncccn4)c(OC)c3)c3c(N)ncnc3n2C)cc1 [Example 36] | 0.25 to 1 | 0.1 to 0.25 | – | – | –
35 | C=CC(=O)Nc1ccc(-c2c(-c3ccc(Oc4nccc(C)n4)c(OC)c3)c3c(N)ncnc3n2C)cc1 [Example 38] | < 0.1 | ≤ 0.1 | – | – | –
36 | C=CC(=O)Nc1ccc(-c2c(-c3ccc(Oc4ccc(C)c(C)n4)c(OC)c3)c3c(N)ncnc3n2C)cc1 [Example 45] | < 0.1 | ≤ 0.1 | – | – | –
37 | C=C(C)C(=O)Nc1ccc(-c2c(-c3ccc(Oc4nccc(C)n4)c(F)c3)c3c(N)ncnc3n2C)cc1 [Example 343] | – | ≤ 0.1 | – | – | –
38 | C=C(C)C(=O)Nc1ccc(-c2c(-c3ccc(Oc4nccc(C)n4)c(F)c3)c3c(N)ncnc3n2C)c(C)c1 [Example 495] | – | – | ≤ 0.1 | – | –
39 | C=C(C)C(=O)Nc1ccc(-c2c(-c3ccc(Oc4nccc(C)n4)c(F)c3)c3c(N)ncnc3n2C)c(C(F)F)c1 [Example 496] | – | – | ≤ 0.1 | – | –
40 | C=C(C)C(=O)Nc1ccc(-c2c(-c3ccc(Oc4nccc(C)n4)c(F)c3)c3c(N)ncnc3n2C)c(C(F)F)c1 [Example 527] | – | – | ≤ 0.1 | – | –
41 | C=C(C)C(=O)Nc1ccc(-c2c(-c3ccc(Oc4nccc(C)n4)c(F)c3)c3c(N)ncnc3n2C)c(C)c1 [Example 531] | – | – | ≤ 0.1 | – | –
42 | C=C(C)C(=O)Nc1ccc(-c2c(-c3ccc(Oc4nccc(C)n4)c(F)c3)c3c(N)ncnc3n2C)c(CO)c1 [Example 535] | – | – | ≤ 0.1 | – | –
43 | C=CC(=O)N1CCC(c2c(-c3ccc(N4CCN(C(C)C)CC4)cc3)c3c(N)ncnc3n2C)C1 (stereo not drawn) [Example 770] | – | 1 to 100 | – | – | –
44 | C=C(C)C(=O)Nc1cc(C)c(-c2c(C3=CC[C@@H](C(=O)N4CCCC4)CC3)c3c(N)ncnc3n2C)c(F)c1 [Example 1483] | – | – | – | < 0.1 | ≤ 0.1
45 | C#Cc1ncc(-c2c(-c3ccc(Oc4nccc(C)n4)cn3)c3c(C)ncnc3n2C)c(C)c1F [Example 1488] | – | – | – | 0.25 to 1 | 0.25 to 1
46 | C#Cc1ncc(-c2c(-c3ccc(Oc4nccc(C)n4)cn3)c3c(N)ncnc3n2C)c(OC)c1F [Example 1490] | – | – | – | 1 to 100 | 1 to 100
47 | C#Cc1cc(OC)c(-c2c(-c3ccc(Oc4nccc(C)n4)cn3)c3c(N)ncnc3n2C)cn1 [Example 1491] | – | – | – | < 0.1 | ≤ 0.1
48 | C#Cc1cc(C)c(-c2c(-c3ncc(Oc4nccc(C)n4)cc3F)c3c(N)ncnc3n2C)cn1 [Example 1492] | – | – | – | < 0.1 | ≤ 0.1
49 | C#Cc1ccc2c(n1)OCCn1c-2c(-c2ccc(Oc3nccc(C)n3)c(F)c2)c2c(N)ncnc21 [Example 1495] | – | – | – | < 0.1 | ≤ 0.1
